Measured values from ChEMBL document CHEMBL1255241, “Novel characteristics of community-acquired methicillin-resistant Staphylococcus aureus strains belonging to multilocus sequence type 59 in Taiwan” (2008).
Converted amounts (≈) assume the structure as drawn.

Tests used:
Format in all cases: functional
Staphylococcus aureus [1] = test: Antibacterial activity against group 1-v1 PVL+ community-acquired methicillin-resistant Staphylococcus aureus ST 59 expressing SCCmec type V gene by agar dilution method
Staphylococcus aureus [2] = test: Antibacterial activity against group 4-v3 PVL negative community-acquired methicillin-resistant Staphylococcus aureus ST 59 expressing SCCmec type IVc gene by agar dilution method
Staphylococcus aureus [3] = test: Antibacterial activity against group 4-v1 PVL negative community-acquired methicillin-resistant Staphylococcus aureus ST 59 expressing SCCmec type X gene by agar dilution method
Staphylococcus aureus [4] = test: Antibacterial activity against group 5 PVL negative community-acquired methicillin-resistant Staphylococcus aureus ST 5 expressing SCCmec type II gene by agar dilution method
Staphylococcus aureus [5] = test: Antibacterial activity against group 3-v1 PVL negative community-acquired methicillin-resistant Staphylococcus aureus ST 900 expressing SCCmec type III gene by agar dilution method
Staphylococcus aureus [6] = test: Antibacterial activity against group 3 PVL negative community-acquired methicillin-resistant Staphylococcus aureus ST 239 expressing SCCmec type III gene by agar dilution method
Staphylococcus aureus [7] = test: Antibacterial activity against group 1 PVL+ community-acquired methicillin-resistant Staphylococcus aureus ST 59 expressing SCCmec type VT gene by agar dilution method
Staphylococcus aureus [8] = test: Antibacterial activity against group 2 PVL+ community-acquired methicillin-resistant Staphylococcus aureus ST 30 expressing SCCmec type IVc gene by agar dilution method
Staphylococcus aureus [9] = test: Antibacterial activity against group 1-v2 PVL+ community-acquired methicillin-resistant Staphylococcus aureus ST 59 expressing SCCmec type X gene by agar dilution method
Staphylococcus aureus [10] = test: Antibacterial activity against group 4-v2 PVL negative community-acquired methicillin-resistant Staphylococcus aureus ST 59 expressing SCCmec type IVx gene by agar dilution method
Staphylococcus aureus [11] = test: Antibacterial activity against group 6 PVL negative community-acquired methicillin-resistant Staphylococcus aureus ST 8 expressing SCCmec type IVx gene by agar dilution method
Staphylococcus aureus [12] = test: Antibacterial activity against group 4 PVL negative community-acquired methicillin-resistant Staphylococcus aureus ST 59 expressing SCCmec type IVx gene by agar dilution method
Staphylococcus aureus [13] = test: Antibacterial activity against group 1-v4 PVL+ community-acquired methicillin-resistant Staphylococcus aureus ST 59 expressing SCCmec type VT gene by agar dilution method
Staphylococcus aureus [14] = test: Antibacterial activity against group 1-v3 PVL+ community-acquired methicillin-resistant Staphylococcus aureus ST 59 expressing SCCmec type V gene by agar dilution method

Molecule `Cc1onc(-c2ccccc2)c1C(=O)N[C@@H]1C(=O)N2[C@@H]1SC(C)(C)[C@@H]2C(=O)O` [OXACILLIN] has an MIC (Staphylococcus aureus [1]) of 64 µg/mL (≈ 159 µM), an MIC (Staphylococcus aureus [2]) of 32 µg/mL (≈ 79.7 µM) and an MIC (Staphylococcus aureus [3]) of 32 µg/mL (≈ 79.7 µM). It also gave an MIC (Staphylococcus aureus [4]) of no less than 128 µg/mL, an MIC (Staphylococcus aureus [5]) of no less than 128 µg/mL and an MIC (Staphylococcus aureus [6]) of no less than 128 µg/mL. The MIC (Staphylococcus aureus [7]) was 32 µg/mL (≈ 79.7 µM), the MIC (Staphylococcus aureus [8]) was 32 µg/mL (≈ 79.7 µM) and the MIC (Staphylococcus aureus [9]) was 64 µg/mL (≈ 159 µM). The MIC (Staphylococcus aureus [10]) was 64 µg/mL (≈ 159 µM), the MIC (Staphylococcus aureus [11]) was 32 µg/mL (≈ 79.7 µM) and the MIC (Staphylococcus aureus [12]) was no less than 128 µg/mL. For the same molecule, the MIC (Staphylococcus aureus [13]) was 4 µg/mL (≈ 9.96 µM) and the MIC (Staphylococcus aureus [14]) was 4 µg/mL (≈ 9.96 µM).
